# Values of other authors as cited in publication PMC11053489 (Viruses, 2024).
# System: SARS-CoV-2 with mutations in the RNA-dependent RNA polymerase gene
# Details: cited from earlier work
smiles,measurement,value
CCC(CC)COC(=O)[C@H](C)N[P@](=O)(OC[C@H]1O[C@@](C#N)(c2ccc3c(N)ncnn23)[C@H](O)[C@@H]1O)Oc1ccccc1 [Remdesivir],increase in EC50 of resistant lineages,2.5 to 10 fold
